In PubChem BioAssay AID1963965 (Molecular Pharmacology Branch, DTP, NCI, 2024):

Test system: 996289-038-R-J1-PDC spheroid viability
Test: Anticancer human tumor 996289-038-R-J1-PDC patient-derived colon adenocarcinoma cell line growth inhibition [PI3K]
Details: spheroids with HUVEC and MSC; for IC50: curve of first compound; for viability, T/C: stronger effect = lower value
Summary of the method: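 We assembled tumor spheroids that included a stromal compartment of HUVEC and MSCs, then exposed them to targeted agents alone and together with PI3K pathway inhibitors. Concentration series descended by half-log from clinically achievable Cmax levels. Viability served as the endpoint.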

[1] = second compound 0.0316 µM, first compound 0.0316 µM
[2] = second compound 0.0316 µM, first compound 0.1 µM
[3] = second compound 0.0316 µM, first compound 0.316 µM
[4] = second compound 0.0316 µM, first compound 1 µM
[5] = second compound 0.0316 µM, first compound 3.16 µM
[6] = second compound 0.0316 µM, first compound 10 µM
[7] = second compound 0.1 µM, first compound 0.0316 µM
[8] = second compound 0.1 µM, first compound 0.1 µM
[9] = second compound 0.1 µM, first compound 0.316 µM
[10] = second compound 0.1 µM, first compound 1 µM
[11] = second compound 0.1 µM, first compound 3.16 µM
[12] = second compound 0.1 µM, first compound 10 µM
[13] = second compound 0.316 µM, first compound 0.0316 µM
[14] = second compound 0.316 µM, first compound 0.1 µM
[15] = second compound 0.316 µM, first compound 0.316 µM
[16] = second compound 0.316 µM, first compound 1 µM
[17] = second compound 0.316 µM, first compound 3.16 µM
[18] = second compound 0.316 µM, first compound 10 µM
[19] = second compound 1 µM, first compound 0.0316 µM
[20] = second compound 1 µM, first compound 0.1 µM
[21] = second compound 1 µM, first compound 0.316 µM
[22] = second compound 1 µM, first compound 1 µM
[23] = second compound 1 µM, first compound 3.16 µM
[24] = second compound 1 µM, first compound 10 µM
[25] = second compound 3.16 µM, first compound 0.0316 µM
[26] = second compound 3.16 µM, first compound 0.1 µM
[27] = second compound 3.16 µM, first compound 0.316 µM
[28] = second compound 3.16 µM, first compound 1 µM
[29] = second compound 3.16 µM, first compound 3.16 µM
[30] = second compound 3.16 µM, first compound 10 µM
[31] = second compound 10 µM, first compound 0.0316 µM
[32] = second compound 10 µM, first compound 0.1 µM
[33] = second compound 10 µM, first compound 0.316 µM
[34] = second compound 10 µM, first compound 1 µM
[35] = second compound 10 µM, first compound 3.16 µM
[36] = second compound 10 µM, first compound 10 µM
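Further: spheroids exposed to compounds for seven days before viability read.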
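Wherever viability, T/C is given: luminescence used as a proxy for viable cell amount; percent viability relative to DMSO vehicle control as 100%.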

Structure (SMILES): C#Cc1c(F)ccc2cc(O)cc(-c3ncc4c(N5CC6CCC(C5)N6)nc(OCC56CCCN5CC(F)C6)nc4c3F)c12 (centres undefined) + Cc1nc(NC(=O)N2CCCC2C(N)=O)sc1-c1ccnc(C(C)(C)C(F)(F)F)c1
- IC50 (second compound 0.0316 µM): 1670 nM
- IC50 (second compound 0.1 µM): 610 nM
- IC50 (second compound 0.316 µM): 291 nM
- IC50 (second compound 1 µM): 156 nM
- IC50 (second compound 3.16 µM): 77.7 nM
- IC50 (second compound 10 µM): < 31.6 nM
- viability, T/C [1]: 80.9%
- viability, T/C [2]: 77.1%
- viability, T/C [3]: 66.6%
- viability, T/C [4]: 53.9%
- viability, T/C [5]: 45.4%
- viability, T/C [6]: 40.2%
- viability, T/C [7]: 94.4%
- viability, T/C [8]: 78.5%
- viability, T/C [9]: 55.6%
- viability, T/C [10]: 45.1%
- viability, T/C [11]: 39.6%
- viability, T/C [12]: 33.4%
- viability, T/C [13]: 72.9%
- viability, T/C [14]: 55%
- viability, T/C [15]: 50.8%
- viability, T/C [16]: 40.1%
- viability, T/C [17]: 37.8%
- viability, T/C [18]: 27.8%
- viability, T/C [19]: 65.5%
- viability, T/C [20]: 54.8%
- viability, T/C [21]: 42.6%
- viability, T/C [22]: 33.2%
- viability, T/C [23]: 27.8%
- viability, T/C [24]: 23.4%
- viability, T/C [25]: 64%
- viability, T/C [26]: 47.2%
- viability, T/C [27]: 30.5%
- viability, T/C [28]: 26.8%
- viability, T/C [29]: 23.3%
- viability, T/C [30]: 16.9%
- viability, T/C [31]: 37.6%
- viability, T/C [32]: 35.6%
- viability, T/C [33]: 22.2%
- viability, T/C [34]: 16.7%
- viability, T/C [35]: 14.5%
- viability, T/C [36]: 6.74%

Structure (SMILES): CC1(C)CCC(Nc2ncc(C(F)(F)F)c(-c3c[nH]c4c(P(C)(C)=O)c(C#N)ccc34)n2)CN1 (centres undefined) + Cc1nc(NC(=O)N2CCCC2C(N)=O)sc1-c1ccnc(C(C)(C)C(F)(F)F)c1
- IC50 (second compound 0.0316 µM): 6450 nM
- IC50 (second compound 0.1 µM): 6700 nM
- IC50 (second compound 0.316 µM): 5830 nM
- IC50 (second compound 1 µM): 4920 nM
- IC50 (second compound 3.16 µM): 3620 nM
- IC50 (second compound 10 µM): < 31.6 nM
- viability, T/C [1]: 103%
- viability, T/C [2]: 86.8%
- viability, T/C [3]: 75.6%
- viability, T/C [4]: 90.1%
- viability, T/C [5]: 92.2%
- viability, T/C [6]: 25.6%
- viability, T/C [7]: 89.9%
- viability, T/C [8]: 74.1%
- viability, T/C [9]: 88.2%
- viability, T/C [10]: 85%
- viability, T/C [11]: 91.3%
- viability, T/C [12]: 30.8%
- viability, T/C [13]: 75.5%
- viability, T/C [14]: 78%
- viability, T/C [15]: 85.8%
- viability, T/C [16]: 79%
- viability, T/C [17]: 80.2%
- viability, T/C [18]: 24%
- viability, T/C [19]: 75%
- viability, T/C [20]: 70%
- viability, T/C [21]: 70.8%
- viability, T/C [22]: 69.7%
- viability, T/C [23]: 68.1%
- viability, T/C [24]: 21.4%
- viability, T/C [25]: 62.5%
- viability, T/C [26]: 57.9%
- viability, T/C [27]: 55.9%
- viability, T/C [28]: 58.7%
- viability, T/C [29]: 55%
- viability, T/C [30]: 13.1%
- viability, T/C [31]: 41.9%
- viability, T/C [32]: 46%
- viability, T/C [33]: 41.7%
- viability, T/C [34]: 38.8%
- viability, T/C [35]: 36.9%
- viability, T/C [36]: 10.2%
